Holding throughout (format): in vivo
One test relates to rats. Description: 14-day immobilization in antiorthostatic position (Ds), thymus, spleen, adrenal mass ratios Kt. The conditions noted are these: Ds-conditions; for S/A: spleen/adrenals ratio (mg/100 g baseline body weight); for S/T: spleen/thymus ratio (mg/100 g baseline body weight); for T/A: thymus/adrenals ratio (mg/100 g baseline body weight).
Test [1] has as its system mice. Description: Hypobaric hypoxia in pressure chamber, adult mice. The following applies: for Duration of life: adult mice, hypobaric hypoxia.
A further test deals with rabbits. Description: Transcallosal stimulation induced potential (TSIP). The conditions noted are these: Piracetam 300-500, Pyritinol 50-150, Phenotropil 25-300 mg/kg.
Test [2] concerns mice. Description: Electric extremities pain stimulation, thresholds TA, TFC, TF.
Test [3] relates to mice. As to the kind of experiment: Cross maze exploratory behavior, HEF and LEF mice. The following applies: i.p. once a day 5 days, Compounds 1 and 4 100 mg/kg, Piracetam 200 mg/kg.
The subject of test [4] is mice. Description: Benzedrine-induced stimulation of orientation-locomotor activity. The conditions noted are these: mice; Benzedrine 3.0 mg/kg alone. The text has this: In regard to influencing the effects of Benzedrine, Phenotropil also can provide, depending on the dose, the diametrically opposite activity when in combination with psychostimulants. This fact must be taken into account in combined use of various pharmacological agents.

For test [5], the system named is mice. Description: Duration of swimming in cold (2° C.) and normal (25° C.) water. The following applies: single dose 2.5 mg/kg i.p. On the procedure:
Stimulatory effect on the duration of swimming in cold (2° C.) and normal (25° C.) water (Table 8.1-8.1.1) of Phenotropil (25 and 50 mg/kg) compared with the control (distilled water) and Benzedrine (2.5 mg/kg) was studied in white outbred male mice (18-26 g) compared to control (distilled water) when intraperitoneally administered, 60 min after the administration and with a course administration for 4 weeks administration on day 28 (Table 8.1.2). […] At normal temperature of water, the effect of Benzedrine was not modified and stayed at 34%.
The advantage of psychomodulator Phenotropil is obvious both with the single dose and the course use, by the effect on physical performance and stability of the body, both in normal and more adverse temperature conditions.

Structures are written as SMILES. Marks after values point to notes of the source that are not given here.

This note sets out measurements from patent US20140315972A1, “RS)-2-(2-oxo-4-phenylpyrrolidin-1-yl)acetamide compound having modulatory activity with a commensurate effect, pharmaceutical substance (variants) and its application, composition (variants) thereof” (priority 2011, published 2014).

Take `NC(=O)CN1CC(c2ccccc2)CC1=O` (stereo not drawn) [Fepiron (−)]: in the test on rats (200 mg/kg), the S/A is listed as 9.0 ± 0.5, the S/T is listed as 4.9 ± 0.7 and the T/A amounted to 1.9 ± 0.3.
In the same order, the values of `NC(=O)CN1CC(c2ccccc2)CC1=O` (stereo not drawn) [Fepiron (+)] are 11.3 ± 0.4, 5.4 ± 0.1 and 2.1 ± 0.6.
As for `CN1C(=O)CN=C(c2ccccc2)c2cc(Cl)ccc21` [Seduxen], in the test on rats (2 mg/kg), the S/A worked out at 7.6 ± 0.2, the S/T turned out to be 3.6 ± 0.1 and the T/A is 2.2 ± 1.4.
With `NC(=O)CN1CCCC1=O` [Piracetam], in the test on mice [1] (600 mg/kg), the “shortening of survival time vs control” value is listed as 35.0% and the Duration of life was found to be 1.5 ± 0.6 min. Besides, the “increase of survival time vs control” value in the test with mice [1] (900-2000 mg/kg) worked out at 78.0%. In the test on mice [1] (900 mg/kg), the Duration of life stood at 4.0 ± 0.6 min. The molecule further yielded a Duration of life in the test with mice [1] (2000 mg/kg) of 4.2 ± 0.4 min. Further, in the test with rabbits, the “TSIP P1 + N1 amplitude” value is on record as “++ (amplitude increase by 30 to 50%)”, the “TSIP component N1 amplitude” value is “++ (amplitude increase by 30 to 50%)”, the “TSIP component P1 amplitude” value was “+++ (amplitude increase by more than 50%)” and the “TSIP component P2 amplitude” value was “+ (amplitude increase by less than 50%)”. Further, in the test with mice [2] (100 mg/kg), the “decrease in the aggression threshold (TF)” value is 11.3%, the “lowering of threshold of emotional reactivity (TFC)” value is 23.5% and the “reduction of the pain threshold (TA)” value amounted to 43.6%. In the test on mice [2] (100 mg/kg i.p.), the “TA (threshold of attention) vs control” value is −43.6 * %, the “TF (threshold of aggression) vs control” value was −11.3 * % and the “TFC (threshold of first cheep) vs control” value (“TFC … vs control” below) was −23.5 * %. In the test with mice [2] (200 mg/kg), the “lowering of threshold of emotional reactivity (TFC)” value is reported as 47.0% and the “reduction of the pain threshold (TA)” value was determined as 48.1%. For the same molecule, in the test with mice [2] (200 mg/kg i.p.), the “TA (threshold of attention) vs control” value is on record as −48.1 * % and the “TFC … vs control” value was −47.0 * %. In the test with mice [2] (200 mg/kg i.p., 200 mg/kg), the “TF (threshold of aggression) vs control” value is −15.7 * %. In the test on mice [2] (200 mg/kg i.p., listed as Pyracetam, 200 mg/kg), the “TF (threshold of aggression) vs control” value turned out to be 25.7%. In the test on mice [2] (300 mg/k (so in the source)), the “reduction of the pain threshold (TA)” value was found to be 19.9%. Also, the “increase of aggression threshold (TF)” value in the test on mice [2] (300 mg/kg (so in the source)) was found to be 7.4%. Moreover, in the test on mice [2] (400 mg/kg i.p.), the “TA (threshold of attention) vs control” value was −20.0 * %, the “TF (threshold of aggression) vs control” value was −7.4% and the “TFC … vs control” value is “+5.0%”. Moreover, in the test with mice [3] (HEF mice), the “Kt (trigger transmission coefficient)” value was 3.1 ± 0.45, the “Number of compartment explorations” value is listed as 4.2 ± 0.7 // and the Number of surveillances was 1.9 ± 0.2. Further, in the test on mice [3] (LEF mice), the “Kt (trigger transmission coefficient)” value amounted to 2.4 ± 0.5, the “Number of compartment explorations” value is listed as 5.3 ± 0.8 // and the Number of surveillances was 2.2 ± 0.2. For the same molecule, in the test on mice [3] (population as a whole), the “Kt (trigger transmission coefficient)” value turned out to be 1.3 ± 0.45, the “Number of compartment explorations” value is 4.6 ± 0.7 // and the Number of surveillances came to 2.0 ± 0.2. Further, in the test on rats (200 mg/kg), the S/A came out at 12.1 ± 1.5, the S/T is recorded as 7.4 ± 0.7 and the T/A was 1.6 ± 0.2. For the same molecule, in the test on rats (400 mg/kg), the S/A stood at 10.8 ± 1.3, the S/T was found to be 7.2 ± 0.4 and the T/A is on record as 1.5 ± 0.1. For the same molecule, in the test on rats (600 mg/kg), the S/A was found to be 10.2 ± 0.1, the S/T turned out to be 4.0 ± 0.1 and the T/A was found to be 2.6 ± 0.1.
As for `NCC(CC(=O)O)c1ccccc1` (stereo not drawn) [phenibut], in the test with rats (50 mg/kg), the S/A is recorded as 10.2 ± 0.3, the S/T is given as 7.6 ± 0.2 and the T/A is given as 1.3 ± 0.6. In the test with rats (100 mg/kg), the S/A came to 8.0 ± 0.1, the S/T is reported as 4.7 ± 0.1 and the T/A is given as 1.7 ± 0.1.
Consider `NCC(CC(=O)O)c1ccccc1` (stereo not drawn) [Phenibut (−)], for which, in the test on rats (50 mg/kg), the S/A was found to be 12.0 ± 0.3, the S/T came out at 4.8 ± 0.3 and the T/A is 2.5 ± 0.3.
`NCC(CC(=O)O)c1ccccc1` (stereo not drawn) [Phenibut (+)]: in the test on rats (50 mg/kg), the S/A is given as 13.0 ± 0.1, the S/T worked out at 4.8 ± 0.1 and the T/A is given as 2.7 ± 0.1.
For the molecule `CC(N)Cc1ccccc1` (stereo not drawn) [Benzedrine, reference compound], in the test on mice [4], the “Number of pulses for 3 min.” value is 84.3 ± 7.9 and the “Number of stand-ups for 3 min.” value is 14.2 ± 1.8. Moreover, in the test with mice [5], the Duration of swimming turned out to be 160.70 ± 11.75 min. Besides, in the test on mice [5] (water 2° C.), the Duration of swimming came to 1.60 ± 0.2 min.
In the case of `Cc1ncc(CSSCc2cnc(C)c(O)c2CO)c(CO)c1O` [Pyritinol], in the test on rabbits, the “TSIP P1 + N1 amplitude” value is “+ (amplitude increase by less than 50%)”, the “TSIP component N1 amplitude” value was “+ (amplitude increase by less than 50%)”, the “TSIP component P1 amplitude” value is listed as “+ (amplitude increase by less than 50%)” and the “TSIP component P2 amplitude” value is recorded as “+ (amplitude increase by less than 50%)”.
Take `O=C1CC(c2ccccc2)CN1` (racemic) [Fepiron, 4(R,S)-feniilpirrolidin-2-one]: the “increase of survival time vs control” value in the test with mice [1] (100 mg/kg) came to 47.8%. In addition, the “effect on survival of the animals” value in the test with mice [1] (25-50 mg/kg) is “did not affect the survival of the animals”. Also, the results for the Duration of life in the test on mice [1] (25 mg/kg), in the test on mice [1] (50 mg/kg) and with mice [1] (100 mg/kg) were 2.3 ± 0.2^ min, 2.7 ± 0.2^ min and 3.4 ± 0.2 min, respectively. In addition, the “TA (threshold of attention) vs control” value in the test with mice [2] (25 mg/kg i.p.) is given as 0.0%; in the test on mice [2] (50 mg/kg i.p.) it was “+5.0%”; in the test with mice [2] (100 mg/kg i.p.), “+12.5 * %”. In addition, the figures for the “TFC … vs control” value in the test on mice [2] (25 mg/kg i.p.), in the test with mice [2] (50 mg/kg i.p.) and in the test with mice [2] (100 mg/kg i.p.) were −5.7%, “+11.4 * %” and “+2.8%”, respectively. The S/A in the test with rats (50 mg/kg) is 11.3 ± 0.3; in the test on rats (100 mg/kg) it was 9.0 ± 0.3; with rats (200 mg/kg), 9.4 ± 0.4. Also, the values for the S/T in the test with rats (50 mg/kg), in the test on rats (100 mg/kg) and with rats (200 mg/kg) were 5.4 ± 0.3, 5.4 ± 0.3 and 9.5 ± 0.9, respectively. Moreover, the figures for the T/A with rats (50 mg/kg), in the test with rats (100 mg/kg) and in the test on rats (200 mg/kg) were 2.1 ± 0.2, 1.6 ± 0.3 and 1.0 ± 0.1, respectively.
